From patent US12559464B2, “Quinazolinone dione compounds and uses thereof” (Edgewise Therapeutics, Inc., priority 2023, dated 2026)

Columns and labels:
[1] = tested on: myosin ATPase, Rabbit Psoas myofibrils; test: Myofibril ATPase assay, rabbit psoas (skeletal) myofibrils; assay type: biochemical; settings: Rabbit Psoas Prep pCa 25 GEOM_MEAN; for Rabbit Psoas EC25 (Y75 value): concentration required to reduce myosin ATP-ase activity by 25%; for Rabbit Psoas Y125 value (marked #): concentration required to increase myosin ATP-ase activity by 25%
[2] = tested on: myosin ATPase, Porcine Atria myofibrils; test: Myofibril ATPase assay, porcine atria myofibrils; assay type: biochemical; settings: concentration required to reduce myosin ATP-ase activity by 25%; Porcine Atria Prep pCa 25 GEOM_MEAN
[3] = target: T1, myosin ATPase, Porcine Ventricle myofibrils (Sus scrofa, UniProt P79293); test: Myofibril ATPase assay, porcine ventricle myofibrils; assay type: biochemical, porcine (Yucatan minipigs); settings: concentration required to reduce myosin ATP-ase activity by 25%; Porcine Ventricle Prep pCa 25 GEOM_MEAN
T1 construct: Myofibrils from porcine cardiac muscle was isolated from the left ventricle of Yucatan minipigs; tissue Exemplar Genetics; host or cells: left ventricle of Yucatan minipigs, myofibrils
Procedure, shortened: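 Myofibrils from Yucatan minipig left ventricle; ADP production coupled via PK-LDH to NADH loss, read kinetically at 340 nm every 1.5–2 min for 75 min in PIPES/MgCl2 pH 7.0 buffer. Slopes normalized to vehicle and fit to 4-parameter logistic; values are concentrations giving 75% (inhibition) or 125% (activation) of vehicle activity.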

T1 sequence (P79293 whole entry): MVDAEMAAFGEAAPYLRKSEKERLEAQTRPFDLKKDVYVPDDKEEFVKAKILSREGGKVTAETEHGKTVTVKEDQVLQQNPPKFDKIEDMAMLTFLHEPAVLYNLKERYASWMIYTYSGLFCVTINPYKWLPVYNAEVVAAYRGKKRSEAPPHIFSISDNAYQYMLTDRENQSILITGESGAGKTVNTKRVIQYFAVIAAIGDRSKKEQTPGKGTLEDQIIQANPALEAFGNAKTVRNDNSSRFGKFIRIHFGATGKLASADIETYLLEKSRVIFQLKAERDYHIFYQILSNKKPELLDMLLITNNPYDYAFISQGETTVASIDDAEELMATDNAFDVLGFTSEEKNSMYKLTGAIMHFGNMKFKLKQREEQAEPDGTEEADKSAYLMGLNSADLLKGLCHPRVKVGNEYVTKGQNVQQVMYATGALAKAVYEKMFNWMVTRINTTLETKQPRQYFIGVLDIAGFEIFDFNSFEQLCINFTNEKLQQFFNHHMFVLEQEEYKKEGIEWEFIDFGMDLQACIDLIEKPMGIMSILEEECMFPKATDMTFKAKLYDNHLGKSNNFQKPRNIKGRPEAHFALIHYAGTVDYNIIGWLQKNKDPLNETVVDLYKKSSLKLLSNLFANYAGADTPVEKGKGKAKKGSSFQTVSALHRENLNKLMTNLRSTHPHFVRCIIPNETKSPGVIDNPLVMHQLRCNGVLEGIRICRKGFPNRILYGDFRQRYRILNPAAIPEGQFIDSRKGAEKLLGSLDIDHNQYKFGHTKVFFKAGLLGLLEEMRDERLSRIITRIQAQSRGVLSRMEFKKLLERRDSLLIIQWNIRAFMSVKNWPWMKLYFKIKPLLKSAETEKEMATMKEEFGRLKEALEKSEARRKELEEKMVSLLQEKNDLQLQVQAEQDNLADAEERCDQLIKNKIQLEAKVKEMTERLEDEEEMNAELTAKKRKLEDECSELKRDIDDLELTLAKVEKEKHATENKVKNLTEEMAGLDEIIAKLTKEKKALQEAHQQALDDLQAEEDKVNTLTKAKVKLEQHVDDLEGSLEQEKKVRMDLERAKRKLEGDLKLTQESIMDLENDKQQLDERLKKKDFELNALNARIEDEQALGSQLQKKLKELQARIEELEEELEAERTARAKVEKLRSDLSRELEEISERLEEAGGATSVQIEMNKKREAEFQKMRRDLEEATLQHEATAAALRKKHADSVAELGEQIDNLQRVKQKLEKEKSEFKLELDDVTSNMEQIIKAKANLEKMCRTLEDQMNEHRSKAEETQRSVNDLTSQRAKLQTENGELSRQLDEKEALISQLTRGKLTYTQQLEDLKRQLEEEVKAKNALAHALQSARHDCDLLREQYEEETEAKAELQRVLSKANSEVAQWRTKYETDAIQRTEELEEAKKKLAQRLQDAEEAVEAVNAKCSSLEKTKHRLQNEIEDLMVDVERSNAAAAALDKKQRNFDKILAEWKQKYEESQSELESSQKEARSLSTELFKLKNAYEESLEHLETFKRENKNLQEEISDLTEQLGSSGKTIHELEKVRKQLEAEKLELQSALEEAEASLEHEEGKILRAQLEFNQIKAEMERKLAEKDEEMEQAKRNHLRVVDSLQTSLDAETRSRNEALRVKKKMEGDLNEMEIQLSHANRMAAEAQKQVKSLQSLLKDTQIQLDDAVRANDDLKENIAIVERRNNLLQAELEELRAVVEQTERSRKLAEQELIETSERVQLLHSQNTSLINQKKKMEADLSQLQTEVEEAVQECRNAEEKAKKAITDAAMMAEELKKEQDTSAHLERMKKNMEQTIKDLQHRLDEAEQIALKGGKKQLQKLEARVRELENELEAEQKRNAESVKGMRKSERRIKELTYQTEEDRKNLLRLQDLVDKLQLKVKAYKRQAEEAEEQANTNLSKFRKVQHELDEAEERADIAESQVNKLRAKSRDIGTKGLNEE

| Rabbit Psoas EC25 (Y75 value) [1] | Porcine Atria EC25 (Y75 value) [2] | Porcine Ventricle EC25 (Y75 value) [3] | Rabbit Psoas Y125 value (marked #) [1] | Structure (SMILES) |
| --- | --- | --- | --- | --- |
| 0.156 µM | 0.4184 µM | 7.872 µM |  | O=C(Cn1c(=O)[nH]c2ccccc2c1=O)N[C@H]1CCc2cc(F)cc(F)c21 (single isomer, unassigned) [Compound 48] |
| 100 µM | 100 µM | 100 µM |  | C[C@H](NC(=O)Cn1c(=O)[nH]c2ncncc2c1=O)c1ccc(F)cc1F [Compound 95, (S)-N-(1-(2,4-difluorophenyl)ethyl)-2-(2,4-dioxo-1,4-dihydropyrimido[4,5-d]pyrimidin-3(2H)-yl)acetamide] |
| 0.984 µM | 0.2427 µM | 13.83 µM |  | Cc1ccc2[nH]c(=O)n(CC(=O)N[C@@H](C)c3ccc(F)cc3F)c(=O)c2c1 [Compound 51, (S)-N-(1-(2,4-difluorophenyl)ethyl)-2-(6-methyl-2,4-dioxo-1,4-dihydroquinazolin-3(2H)-yl)acetamide] |
| 5.422 µM | 79 µM | 100 µM |  | C[C@H](NC(=O)Cn1c(=O)[nH]c2cnccc2c1=O)c1ccc(F)cc1F [Compound 301, (S)-N-(1-(2,4-difluorophenyl)ethyl)-2-(2,4-dioxo-1,4-dihydropyrido[3,4-d]pyrimidin-3(2H)-yl)acetamide] |
| 0.937 µM | 1.067 µM | 25.71 µM |  | O=C(Cn1c(=O)[nH]c2ccccc2c1=O)N[C@@H]1CCCc2cc(F)cc(F)c21 (single isomer, unassigned) [Compound 57] |
| 65.656 µM | 33.59 µM | 29.03 µM |  | CC(C)CN(C(=O)Cn1c(=O)[nH]c2ccccc2c1=O)C(C)c1ccc(F)cc1F (stereo not drawn) [Compound 506, N-(1-(2,4-difluorophenyl)ethyl)-2-(2,4-dioxo-1,4-dihydroquinazolin-3(2H)-yl)-N-isobutylacetamide] |
| 100 µM | 100 µM | 100 µM |  | CC(NC(=O)Cn1c(=O)[nH]c2ccccc2c1=O)c1cnn(C)c1 (stereo not drawn) [Compound 603, 2-(2,4-dioxo-1,4-dihydroquinazolin-3(2H)-yl)-N-(1-(1-methyl-1H-pyrazol-4-yl)ethyl)acetamide] |
| 0.59 µM | 0.699 µM | 20.04 µM |  | C[C@@H](NC(=O)Cn1c(=O)[nH]c2ccc(F)cc2c1=O)c1ncc(C#N)cn1 (single isomer, unassigned) [Compound 1] |
| 0.817 µM | 5.405 µM | 100 µM |  | O=C(Cn1c(=O)[nH]c2ccccc2c1=O)NC(CO)c1ccc(F)cc1F (stereo not drawn) [Compound 87, N-(1-(2,4-difluorophenyl)-2-hydroxyethyl)-2-(2,4-dioxo-1,4-dihydroquinazolin-3(2H)-yl)acetamide] |
| 4.77 µM | 0.42 µM | 13.07 µM |  | C[C@@H](NC(=O)C1(n2c(=O)[nH]c3ccc(F)c(F)c3c2=O)CC1)c1ncc(C#N)cc1F (single isomer, unassigned) [Compound 3011] |
|  | 68.73 µM | 100 µM | 7.64^#^ μM | CC(C)C[C@H](C(=O)N[C@@H](C)c1ccc(F)cc1F)n1c(=O)[nH]c2ccccc2c1=O (single isomer, unassigned) [Compound 32] |
| 100 µM | 100 µM | 100 µM |  | CC(NC(=O)Cn1c(=O)[nH]c2ccccc2c1=O)c1cncnc1 (stereo not drawn) [Compound 214, 2-(2,4-dioxo-1,4-dihydroquinazolin-3(2H)-yl)-N-(1-(pyrimidin-5-yl)ethyl)acetamide] |
| 9.016 µM | 0.427 µM | 10.16 µM |  | C[C@@H](NC(=O)Cn1c(=O)[nH]c2ccc(F)c(F)c2c1=O)c1ccc(C#N)cn1 (single isomer, unassigned) [Compound 17] |
| 100 µM | 100 µM | 100 µM |  | COc1cccc(C(C)NC(=O)Cn2c(=O)[nH]c3ccccc3c2=O)c1 (stereo not drawn) [Compound 522, 2-(2,4-dioxo-1,4-dihydroquinazolin-3(2H)-yl)-N-(1-(3-methoxyphenyl)ethyl)acetamide] |
|  | 48.85 µM | 45.37 µM | 0.85^#^ μM | C[C@H](NC(=O)[C@@H](Cc1ccccc1)n1c(=O)[nH]c2cccc(O)c2c1=O)c1ccc(F)cc1F [Compound 34, (R)-N-((S)-1-(2,4-difluorophenyl)ethyl)-2-(5-hydroxy-2,4-dioxo-1,4-dihydroquinazolin-3(2H)-yl)-3-phenylpropanamide] |
| 0.422 µM | 0.185 µM | 3.995 µM |  | C[C@H](NC(=O)[C@H](C)n1c(=O)[nH]c2ccc(F)c(F)c2c1=O)c1ccc(F)cc1F [Compound 38, (S)-2-(5,6-difluoro-2,4-dioxo-1,4-dihydroquinazolin-3(2H)-yl)-N-((S)-1-(2,4-difluorophenyl)ethyl)propanamide] |
| 0.476 µM | 0.1074 µM | 6.567 µM |  | C[C@H](NC(=O)[C@H](C)n1c(=O)[nH]c2ccc(F)cc2c1=O)c1ccc(F)cc1F [Compound 40, (S)-N-((S)-1-(2,4-difluorophenyl)ethyl)-2-(6-fluoro-2,4-dioxo-1,4-dihydroquinazolin-3(2H)-yl)propanamide] |
|  | 100 µM | 100 µM | 90.27^# μM | CC(C)C[C@H](NC(=O)Cn1c(=O)[nH]c2ccccc2c1=O)c1ccc(F)cc1F (single isomer, unassigned) [Compound 70] |
